Results taken from PMC10897212, “Structural insight into the allosteric inhibition of human sodium-calcium exchanger NCX1 by XIP and SEA0400” (The EMBO Journal, 2023).

Target: T1, Na+/Ca2+ exchanger NCX1.3 (Homo sapiens, UniProt P32418)
T1 construct: gene SLC8A1; full-length wild-type human NCX1.3 (UniProtKB P32418-2); model residues 51–283, 405–501, 518–637, 654–720, and 736–937
Assay: cryo-EM structure at […] Å; also CPM thermofluor shift (~[…] °C) and Fura-2 Ca2+ uptake inhibition at […] in HEK293T cells
Type: binding

## CCOc1ccc(Oc2ccc(OCc3cc(F)ccc3F)cc2)c(N)c1 [SEA0400]
  cryo-EM structure at 3.5 Å; also CPM thermofluor shift (~10 °C) and Fura-2 Ca2+: The SEA0400 molecule is allocated within a negatively charged cavity surrounded by TM2ab, TM4, TM5, and TM8
